Experiments:
[1] = system: IPOHE (Ipomoea hederacea); assay: Postemergence herbicidal evaluation; type: in vivo, (L.) Jacq.; conditions: for IPOHE herbicidal rating: postemergence
Procedure, shortened: (§1)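 Visual 0–9 injury scores versus control plants, covering stand, vigour, malformation, size, chlorosis and general appearance, taken four to five weeks post-spray and averaged over replicate tests. Plants were sprayed at roughly two weeks old and held on greenhouse benches.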

[2] = system: AMBEL (Ambrosia artemisifolia); assay: Postemergence herbicidal evaluation; type: in vivo, L.; conditions: for AMBEL herbicidal rating: postemergence
Procedure, shortened: as §1

[3] = system: CASOB (Cassia obtusifolia); assay: Postemergence herbicidal evaluation; type: in vivo, L.; conditions: for CASOB herbicidal rating: postemergence
Procedure, shortened: as §1

[4] = system: CHEAL (Chenopodium album); assay: Postemergence herbicidal evaluation; type: in vivo, L.; conditions: for CHEAL herbicidal rating: postemergence
Procedure, shortened: as §1

[5] = system: MOOVA (Monochoria vaginalis); assay: Flooded paddy, preemergence weed control; type: in vivo, Presl.; conditions: rated 3-4 weeks after treatment, 0-9 rating scale
Procedure, shortened: (§2)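 Silt loam, sowing depth ≤0.5 cm; permanent flood 1.5–3 cm above soil; greenhouse culture after treatment. Readout: 0-9 visual scale (stand, vigor, malformation, size, chlorosis, appearance) vs control.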

[6] = system: ABUTH (Abutilon theophrasti); assay: Postemergence herbicidal evaluation; type: in vivo, Medic.; conditions: for ABUTH herbicidal rating: postemergence
Procedure, shortened: as §1

[7] = system: ZEAMX (Corn, Field); assay: Preemergence herbicidal evaluation; type: in vivo, Zea mays, L.; conditions: rated 4-5 weeks after treatment
[8] = system: ECHCG (Echinochloa crus-galli); assay: Preemergence herbicidal evaluation; type: in vivo, (L.) Beau; conditions: rated 4-5 weeks after treatment
Procedure, shortened: (§3)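 Visual 0-9 rating versus untreated control, taken four to five weeks post-treatment, scoring stand, vigor, malformation, size, chlorosis and overall appearance. Compound applied as aqueous acetone spray to freshly seeded soil cups, then kept under standard greenhouse care.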

[9] = system: SETVI (Setaria viridis); assay: Preemergence herbicidal evaluation; type: in vivo, (L.) Beau; conditions: rated 4-5 weeks after treatment
Procedure, shortened: as §3

[10] = system: AMBEL (Ambrosia artemisifolia); assay: Preemergence herbicidal evaluation; type: in vivo, L.; conditions: rated 4-5 weeks after treatment
Procedure, shortened: as §3

[11] = system: CASOB (Cassia obtusifolia); assay: Preemergence herbicidal evaluation; type: in vivo, L.; conditions: rated 4-5 weeks after treatment
Procedure, shortened: as §3

[12] = system: CHEAL (Chenopodium album); assay: Preemergence herbicidal evaluation; type: in vivo, L.; conditions: rated 4-5 weeks after treatment
Procedure, shortened: as §3

[13] = system: ABUTH (Abutilon theophrasti); assay: Preemergence herbicidal evaluation; type: in vivo, Medic.; conditions: rated 4-5 weeks after treatment
[14] = system: GLXMAW (Soybean, Williams); assay: Preemergence herbicidal evaluation; type: in vivo, Glycine max, (L.) Merr. cv Williams; conditions: rated 4-5 weeks after treatment
[15] = system: TRZAWR (Wheat, Winter, cv Riband); assay: Preemergence herbicidal evaluation; type: in vivo, Triticum aestivum; conditions: rated 4-5 weeks after treatment
Procedure, shortened: as §3

[16] = system: IPOHE (Ipomoea hederacea); assay: Preemergence herbicidal evaluation; type: in vivo, (L.) Jacq.; conditions: rated 4-5 weeks after treatment
[17] = system: CYPIR (Cyperus iria); assay: Flooded paddy, preemergence weed control; type: in vivo; conditions: rated 3-4 weeks after treatment, 0-9 rating scale
Procedure, shortened: as §2

[18] = system: ORYSAT (Rice, Tebonnet); assay: Postemergence herbicidal evaluation; type: in vivo, Oryza sativa, (L.) Tebonnet; conditions: for ORYSAT herbicidal rating: postemergence
Procedure, shortened: as §1

[19] = system: ORYSAT (Rice, Tebonnet); assay: Flooded paddy, post-transplant rice tolerance; type: in vivo, Oryza sativa, (L.) Tebonnet; conditions: flooded paddy, post-transplant rice, rated 3-4 weeks after treatment, 0-9 rating scale
Procedure, shortened: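 Seedlings aged ten days are transplanted in pairs into undrained pots of silt loam, which are then flooded to a depth of 1.5 to 3 cm. After herbicide application the pots are kept in a greenhouse with the flood maintained. Plants are rated 0-9 by visual comparison with controls.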

[20] = system: GLXMAW (Soybean, Williams); assay: Postemergence herbicidal evaluation; type: in vivo, Glycine max, (L.) Merr. cv Williams; conditions: for GLXMAW herbicidal rating: postemergence
Procedure, shortened: as §1

## Cn1c(C(F)(F)F)cc(=O)n(-c2ccc3snc(C4OCC(C)(C)CO4)c3c2)c1=O [Compound 36, 3-[3(5,5-dimethyl-m-dioxan-2-yl)-1,2-benzisothiazol-5-yl]-1-methyl-6-(trifluoromethyl)uracil]
[1]; rate 0.0320 kg/ha
  Postemergence herbicidal rating, IPOHE: 9.0
[1]; rate 0.0620 kg/ha
  Postemergence herbicidal rating, IPOHE: 9.0
[2]; rate 0.0320 kg/ha
  Postemergence herbicidal rating, AMBEL: 9.0
[2]; rate 0.0620 kg/ha
  Postemergence herbicidal rating, AMBEL: 9.0
[3]; rate 0.0320 kg/ha
  Postemergence herbicidal rating, CASOB: 9.0
[3]; rate 0.0620 kg/ha
  Postemergence herbicidal rating, CASOB: 9.0
[4]; rate 0.0320 kg/ha
  Postemergence herbicidal rating, CHEAL: 7.0
[4]; rate 0.0620 kg/ha
  Postemergence herbicidal rating, CHEAL: 9.0
[5]; rate 0.0080 kg/ha
  herbicidal rating, MOOVA: 9.0
[5]; rate 0.0320 kg/ha
  herbicidal rating, MOOVA: 9.0
[6]; rate 0.0320 kg/ha
  Postemergence herbicidal rating, ABUTH: 9.0
[6]; rate 0.0620 kg/ha
  Postemergence herbicidal rating, ABUTH: 9.0
[7]; Rate 0.0620 kg/ha
  ZEAMX preemergence herbicidal rating: 8.0
[7]; Rate 0.1250 kg/ha
  ZEAMX preemergence herbicidal rating: 8.0
[7]; Rate 0.2500 kg/ha
  ZEAMX preemergence herbicidal rating: 9.0
[8]; Rate 0.0620 kg/ha
  ECHCG preemergence herbicidal rating: 9.0
[8]; Rate 0.1250 kg/ha
  ECHCG preemergence herbicidal rating: 9.0
[8]; Rate 0.2500 kg/ha
  ECHCG preemergence herbicidal rating: 9.0
[9]; Rate 0.0620 kg/ha
  SETVI preemergence herbicidal rating: 9.0
[9]; Rate 0.1250 kg/ha
  SETVI preemergence herbicidal rating: 9.0
[9]; Rate 0.2500 kg/ha
  SETVI preemergence herbicidal rating: 9.0
[10]; Rate 0.0620 kg/ha
  AMBEL preemergence herbicidal rating: 9.0
[10]; Rate 0.1250 kg/ha
  AMBEL preemergence herbicidal rating: 9.0
[10]; Rate 0.2500 kg/ha
  AMBEL preemergence herbicidal rating: 9.0
[11]; Rate 0.0620 kg/ha
  CASOB preemergence herbicidal rating: 5.0
[11]; Rate 0.1250 kg/ha
  CASOB preemergence herbicidal rating: 9.0
[11]; Rate 0.2500 kg/ha
  CASOB preemergence herbicidal rating: 9.0
[12]; Rate 0.0620 kg/ha
  CHEAL preemergence herbicidal rating: 9.0
[12]; Rate 0.1250 kg/ha
  CHEAL preemergence herbicidal rating: 9.0
[12]; Rate 0.2500 kg/ha
  CHEAL preemergence herbicidal rating: 9.0
[13]; Rate 0.0620 kg/ha
  ABUTH preemergence herbicidal rating: 9.0
[13]; Rate 0.1250 kg/ha
  ABUTH preemergence herbicidal rating: 9.0
[13]; Rate 0.2500 kg/ha
  ABUTH preemergence herbicidal rating: 9.0
[14]; Rate 0.0620 kg/ha
  GLXMAW preemergence herbicidal rating: 8.0
[14]; Rate 0.1250 kg/ha
  GLXMAW preemergence herbicidal rating: 9.0
[14]; Rate 0.2500 kg/ha
  GLXMAW preemergence herbicidal rating: 9.0
[15]; Rate 0.0620 kg/ha
  TRZAWR preemergence herbicidal rating: 9.0
[15]; Rate 0.1250 kg/ha
  TRZAWR preemergence herbicidal rating: 9.0
[15]; Rate 0.2500 kg/ha
  TRZAWR preemergence herbicidal rating: 9.0
[16]; Rate 0.0620 kg/ha
  IPOHE preemergence herbicidal rating: 3.5
[16]; Rate 0.1250 kg/ha
  IPOHE preemergence herbicidal rating: 6.5
[16]; Rate 0.2500 kg/ha
  IPOHE preemergence herbicidal rating: 9.0
[17]; rate 0.0080 kg/ha
  herbicidal rating, CYPIR: 0.0
[17]; rate 0.0320 kg/ha
  herbicidal rating, CYPIR: 9.0
[17]; rate 0.1250 kg/ha
  herbicidal rating, CYPIR: 9.0
[18]; rate 0.0320 kg/ha
  Postemergence herbicidal rating, ORYSAT: 4.5
[18]; rate 0.0620 kg/ha
  Postemergence herbicidal rating, ORYSAT: 7.0
[19]; rate 0.0080 kg/ha
  herbicidal rating, ORYSAT (rice tolerance): 5.0
[19]; rate 0.0320 kg/ha
  herbicidal rating, ORYSAT (rice tolerance): 7.5
[19]; rate 0.1250 kg/ha
  herbicidal rating, ORYSAT (rice tolerance): 9.0
[20]; rate 0.0320 kg/ha
  Postemergence herbicidal rating, GLXMAW: 7.5
[20]; rate 0.0620 kg/ha
  Postemergence herbicidal rating, GLXMAW: 9.0

## Cn1c(C(F)(F)F)cc(=O)n(-c2ccc3snc(C4OC(=O)C(C)(C)O4)c3c2)c1=O (stereo not drawn) [Compound 71, 3-[3-(4,4-dimethyl-5-oxo-1,3-dioxolan-2-yl)-1,2-benzisothiazol-5-yl]-1-methyl-6-(trifluoromethyl)uracil]
[1]; rate 0.0320 kg/ha
  IPOHE herbicidal rating: 9.0
[1]; rate 0.0620 kg/ha
  IPOHE herbicidal rating: 9.0
[2]; rate 0.0320 kg/ha
  AMBEL herbicidal rating: 7.0
[2]; rate 0.0620 kg/ha
  AMBEL herbicidal rating: 6.0
[3]; rate 0.0320 kg/ha
  CASOB herbicidal rating: 0.0
[3]; rate 0.0620 kg/ha
  CASOB herbicidal rating: 2.0
[4]; rate 0.0320 kg/ha
  CHEAL herbicidal rating: 6.0
[4]; rate 0.0620 kg/ha
  CHEAL herbicidal rating: 9.0
[5]; rate 0.0080 kg/ha
  herbicidal rating, MOOVA: 0.0
[5]; rate 0.0320 kg/ha
  herbicidal rating, MOOVA: 0.0
[5]; rate 0.1250 kg/ha
  herbicidal rating, MOOVA: 0.0
[6]; rate 0.0320 kg/ha
  ABUTH herbicidal rating: 9.0
[6]; rate 0.0620 kg/ha
  ABUTH herbicidal rating: 9.0
[7]; Rate 0.0620 kg/ha
  Preemergence herbicidal rating ZEAMX: 5.5
[7]; Rate 0.1250 kg/ha
  Preemergence herbicidal rating ZEAMX: 8.0
[7]; Rate 0.2500 kg/ha
  Preemergence herbicidal rating ZEAMX: 8.5
[8]; Rate 0.0620 kg/ha
  Preemergence herbicidal rating ECHCG: 5.5
[8]; Rate 0.1250 kg/ha
  Preemergence herbicidal rating ECHCG: 8.0
[8]; Rate 0.2500 kg/ha
  Preemergence herbicidal rating ECHCG: 8.0
[9]; Rate 0.0620 kg/ha
  Preemergence herbicidal rating SETVI: 8.0
[9]; Rate 0.1250 kg/ha
  Preemergence herbicidal rating SETVI: 9.0
[9]; Rate 0.2500 kg/ha
  Preemergence herbicidal rating SETVI: 9.0
[10]; Rate 0.0620 kg/ha
  Preemergence herbicidal rating AMBEL: 8.0
[10]; Rate 0.1250 kg/ha
  Preemergence herbicidal rating AMBEL: 9.0
[10]; Rate 0.2500 kg/ha
  Preemergence herbicidal rating AMBEL: 9.0
[11]; Rate 0.0620 kg/ha
  Preemergence herbicidal rating CASOB: 3.5
[11]; Rate 0.1250 kg/ha
  Preemergence herbicidal rating CASOB: 6.5
[11]; Rate 0.2500 kg/ha
  Preemergence herbicidal rating CASOB: 7.5
[12]; Rate 0.0620 kg/ha
  Preemergence herbicidal rating CHEAL: 9.0
[12]; Rate 0.1250 kg/ha
  Preemergence herbicidal rating CHEAL: 9.0
[12]; Rate 0.2500 kg/ha
  Preemergence herbicidal rating CHEAL: 9.0
[13]; Rate 0.0620 kg/ha
  Preemergence herbicidal rating ABUTH: 8.0
[13]; Rate 0.1250 kg/ha
  Preemergence herbicidal rating ABUTH: 9.0
[13]; Rate 0.2500 kg/ha
  Preemergence herbicidal rating ABUTH: 9.0
[14]; Rate 0.0620 kg/ha
  Preemergence herbicidal rating GLXMAW: 2.5
[14]; Rate 0.1250 kg/ha
  Preemergence herbicidal rating GLXMAW: 4.5
[14]; Rate 0.2500 kg/ha
  Preemergence herbicidal rating GLXMAW: 6.0
[15]; Rate 0.0620 kg/ha
  Preemergence herbicidal rating TRZAWR: 4.0
[15]; Rate 0.1250 kg/ha
  Preemergence herbicidal rating TRZAWR: 7.0
[15]; Rate 0.2500 kg/ha
  Preemergence herbicidal rating TRZAWR: 8.0
[16]; Rate 0.0620 kg/ha
  Preemergence herbicidal rating IPOHE: 7.0
[16]; Rate 0.1250 kg/ha
  Preemergence herbicidal rating IPOHE: 9.0
[16]; Rate 0.2500 kg/ha
  Preemergence herbicidal rating IPOHE: 9.0
[17]; rate 0.0080 kg/ha
  herbicidal rating, CYPIR: 0.0
[17]; rate 0.0320 kg/ha
  herbicidal rating, CYPIR: 0.0
[17]; rate 0.1250 kg/ha
  herbicidal rating, CYPIR: 0.0
[18]; rate 0.0320 kg/ha
  ORYSAT herbicidal rating: 3.0
[18]; rate 0.0620 kg/ha
  ORYSAT herbicidal rating: 4.5
[19]; rate 0.0080 kg/ha
  herbicidal rating, ORYSAT (rice tolerance): 0.0
[19]; rate 0.0320 kg/ha
  herbicidal rating, ORYSAT (rice tolerance): 0.0
[19]; rate 0.1250 kg/ha
  herbicidal rating, ORYSAT (rice tolerance): 0.0
[20]; rate 0.0320 kg/ha
  GLXMAW herbicidal rating: 4.5
[20]; rate 0.0620 kg/ha
  GLXMAW herbicidal rating: 4.5
